In patent US8044069B2, “Compounds as calcium channel blockers” (Abbott Laboratories, priority 2008, dated 2011):
pIC50: −log10 of the molar value.

biological target: human Cav2.2 (Homo sapiens, UniProt Q00975); experiment: Assessment of calcium channel activity using FLIPR (Ca2+ influx in IMR32 cells); assay type: cell-based; conditions: IMR32 cells endogenously expressing human Cav2.2; 60 minute pre-incubation; 2 μM nifedipine; depolarized with 80 mM KCl, 5 mM CaCl2
Experimental: (i) In Vitro Methods—Assessment of Calcium Channel Activity Using FLIPR:
The IMR32 cells were maintained in MEM media containing 10% (v/v) FBS, 1% (v/v) antibiotic/antimitotic, 1% (v/v) sodium pyruvate and 1% (v/v) MEM NEAA. Following dissociation in 0.05% (v/v) trypsin/EDTA, cells were seeded into black 1×96-well plates (Corning Cellbind) at a density of 1-1.2×10^5 cells/well and incubated in the maintenance media above for 48 hours at 37° C. […] After dye loading and a subsequent 60 minute pre-incubation with compounds (full log dilutions from 10 μM to 0.1 nM) in the presence of 1.3 mM CaCl2 and 2 μM nifedipine to block endogenous L-type channels, the external Ca^2+ concentration was increased to 5 mM CaCl2 and the cells concomitantly depolarized with 80 mM KCl to assay channel activity. To determine the IC50 values, the percent inhibition of the compound at each concentration was determined relative to the activity in the absence of inhibitor, and data was fitted using non-linear regression sigmoidal dose response curve analysis with GraphPad Prism®.

Chain of human Cav2.2 (Q00975 whole entry): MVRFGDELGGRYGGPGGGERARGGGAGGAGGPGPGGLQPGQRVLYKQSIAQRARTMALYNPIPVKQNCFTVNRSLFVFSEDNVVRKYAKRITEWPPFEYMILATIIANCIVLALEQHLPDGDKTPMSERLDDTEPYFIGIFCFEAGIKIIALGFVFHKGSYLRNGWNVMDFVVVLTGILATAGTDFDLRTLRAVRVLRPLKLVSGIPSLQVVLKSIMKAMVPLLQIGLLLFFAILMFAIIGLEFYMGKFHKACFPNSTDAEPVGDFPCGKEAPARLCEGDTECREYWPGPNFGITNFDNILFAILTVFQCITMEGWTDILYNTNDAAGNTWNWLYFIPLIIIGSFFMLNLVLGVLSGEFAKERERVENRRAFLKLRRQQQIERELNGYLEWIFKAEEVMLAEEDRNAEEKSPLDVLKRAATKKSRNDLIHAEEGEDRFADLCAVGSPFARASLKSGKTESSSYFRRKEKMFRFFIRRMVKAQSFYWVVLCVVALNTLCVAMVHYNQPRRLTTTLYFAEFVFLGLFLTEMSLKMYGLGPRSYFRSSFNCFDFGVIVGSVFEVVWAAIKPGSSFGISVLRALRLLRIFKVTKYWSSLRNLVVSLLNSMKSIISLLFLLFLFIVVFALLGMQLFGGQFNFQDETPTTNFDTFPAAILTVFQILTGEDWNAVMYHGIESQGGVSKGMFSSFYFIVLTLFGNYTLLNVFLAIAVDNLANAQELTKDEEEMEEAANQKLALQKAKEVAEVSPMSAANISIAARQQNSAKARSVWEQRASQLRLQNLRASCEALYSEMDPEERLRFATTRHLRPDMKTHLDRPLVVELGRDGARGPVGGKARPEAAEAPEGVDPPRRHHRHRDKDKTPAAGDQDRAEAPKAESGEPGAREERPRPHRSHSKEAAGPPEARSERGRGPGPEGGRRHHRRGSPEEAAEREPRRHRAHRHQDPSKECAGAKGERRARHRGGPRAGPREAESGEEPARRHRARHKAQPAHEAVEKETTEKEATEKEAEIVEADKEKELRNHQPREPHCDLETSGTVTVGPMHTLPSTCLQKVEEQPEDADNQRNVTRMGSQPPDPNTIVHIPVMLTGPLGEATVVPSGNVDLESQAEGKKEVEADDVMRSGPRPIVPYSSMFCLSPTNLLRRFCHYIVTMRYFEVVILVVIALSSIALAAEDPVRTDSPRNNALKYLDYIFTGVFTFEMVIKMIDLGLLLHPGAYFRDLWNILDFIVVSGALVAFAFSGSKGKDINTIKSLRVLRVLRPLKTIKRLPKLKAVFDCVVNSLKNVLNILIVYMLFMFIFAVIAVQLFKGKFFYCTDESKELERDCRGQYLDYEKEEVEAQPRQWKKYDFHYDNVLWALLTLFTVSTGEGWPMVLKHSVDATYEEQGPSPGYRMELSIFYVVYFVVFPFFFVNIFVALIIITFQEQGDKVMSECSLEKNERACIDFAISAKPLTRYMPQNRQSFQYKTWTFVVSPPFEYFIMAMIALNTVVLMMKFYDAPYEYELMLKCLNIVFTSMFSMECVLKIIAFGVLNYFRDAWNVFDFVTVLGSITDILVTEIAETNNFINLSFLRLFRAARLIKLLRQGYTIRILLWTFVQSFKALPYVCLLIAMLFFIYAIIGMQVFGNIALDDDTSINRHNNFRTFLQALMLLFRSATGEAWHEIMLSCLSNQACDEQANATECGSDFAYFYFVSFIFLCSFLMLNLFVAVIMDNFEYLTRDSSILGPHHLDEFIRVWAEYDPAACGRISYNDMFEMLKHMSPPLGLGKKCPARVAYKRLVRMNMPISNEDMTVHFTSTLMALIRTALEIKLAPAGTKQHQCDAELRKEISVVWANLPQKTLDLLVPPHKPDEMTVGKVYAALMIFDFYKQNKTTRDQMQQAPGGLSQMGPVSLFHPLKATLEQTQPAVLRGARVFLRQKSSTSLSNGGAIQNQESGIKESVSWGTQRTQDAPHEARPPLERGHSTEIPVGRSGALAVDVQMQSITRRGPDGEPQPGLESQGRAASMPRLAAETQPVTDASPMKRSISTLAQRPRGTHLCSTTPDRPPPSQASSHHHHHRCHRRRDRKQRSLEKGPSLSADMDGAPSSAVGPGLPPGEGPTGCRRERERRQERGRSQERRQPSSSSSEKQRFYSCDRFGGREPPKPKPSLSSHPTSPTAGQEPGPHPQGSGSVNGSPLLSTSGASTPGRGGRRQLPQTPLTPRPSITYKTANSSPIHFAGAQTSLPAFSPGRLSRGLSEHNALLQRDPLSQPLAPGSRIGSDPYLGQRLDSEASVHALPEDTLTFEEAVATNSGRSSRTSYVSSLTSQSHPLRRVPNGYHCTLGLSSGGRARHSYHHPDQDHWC
Chain of human Cav2.2 (P54289 25-951 partner limits assumed): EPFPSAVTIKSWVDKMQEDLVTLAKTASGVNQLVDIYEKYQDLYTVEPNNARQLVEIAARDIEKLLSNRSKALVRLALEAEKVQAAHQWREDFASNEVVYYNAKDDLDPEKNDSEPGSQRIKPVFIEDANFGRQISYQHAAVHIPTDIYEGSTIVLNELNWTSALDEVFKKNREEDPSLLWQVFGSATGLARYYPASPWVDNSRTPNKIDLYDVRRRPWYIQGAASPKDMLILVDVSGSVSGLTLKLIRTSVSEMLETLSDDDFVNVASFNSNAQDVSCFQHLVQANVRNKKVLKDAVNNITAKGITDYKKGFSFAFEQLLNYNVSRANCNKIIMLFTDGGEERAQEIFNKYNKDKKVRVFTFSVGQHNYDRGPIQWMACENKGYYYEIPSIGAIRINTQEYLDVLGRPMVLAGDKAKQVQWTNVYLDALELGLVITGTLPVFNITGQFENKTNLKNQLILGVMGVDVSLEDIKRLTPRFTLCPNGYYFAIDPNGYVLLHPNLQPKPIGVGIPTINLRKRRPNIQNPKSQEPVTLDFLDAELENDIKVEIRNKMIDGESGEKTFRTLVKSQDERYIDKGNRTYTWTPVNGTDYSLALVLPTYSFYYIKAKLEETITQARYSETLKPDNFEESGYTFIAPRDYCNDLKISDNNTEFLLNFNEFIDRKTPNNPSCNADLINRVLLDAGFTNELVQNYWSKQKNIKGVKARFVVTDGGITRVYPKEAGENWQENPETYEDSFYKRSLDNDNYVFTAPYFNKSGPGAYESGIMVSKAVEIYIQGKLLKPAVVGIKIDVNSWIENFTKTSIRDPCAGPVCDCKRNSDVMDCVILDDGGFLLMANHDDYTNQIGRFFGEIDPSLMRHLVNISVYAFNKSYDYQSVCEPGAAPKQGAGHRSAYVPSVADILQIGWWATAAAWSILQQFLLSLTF
Chain of human Cav2.2 (P54289 952-1103 partner limits assumed): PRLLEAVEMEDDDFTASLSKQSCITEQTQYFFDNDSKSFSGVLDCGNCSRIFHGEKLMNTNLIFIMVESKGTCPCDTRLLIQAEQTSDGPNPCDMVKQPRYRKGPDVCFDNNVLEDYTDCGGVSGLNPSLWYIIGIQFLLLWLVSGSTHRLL
Chain of human Cav2.2 (P54284 whole entry partner): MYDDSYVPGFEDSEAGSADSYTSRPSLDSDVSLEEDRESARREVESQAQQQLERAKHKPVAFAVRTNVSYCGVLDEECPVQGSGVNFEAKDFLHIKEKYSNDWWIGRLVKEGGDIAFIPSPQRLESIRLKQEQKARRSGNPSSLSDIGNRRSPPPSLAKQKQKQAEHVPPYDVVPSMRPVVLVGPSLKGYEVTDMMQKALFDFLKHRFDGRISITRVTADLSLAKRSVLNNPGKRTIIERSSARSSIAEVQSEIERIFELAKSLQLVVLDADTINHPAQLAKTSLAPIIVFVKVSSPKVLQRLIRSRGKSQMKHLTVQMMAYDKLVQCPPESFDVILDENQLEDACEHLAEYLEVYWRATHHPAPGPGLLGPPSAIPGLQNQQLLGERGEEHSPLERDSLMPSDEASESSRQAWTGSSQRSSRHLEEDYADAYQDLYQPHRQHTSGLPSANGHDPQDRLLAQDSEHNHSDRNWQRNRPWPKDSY

Row | Compound | pIC50
1 | O=C(CN1CCC(c2ccc(F)cc2)C1=O)N1CCc2ccc(C(F)(F)F)cc2C1 (stereo not drawn) [Example 254, 3-(4-fluorophenyl)-1-{2-oxo-2-[7-(trifluoromethyl)-3,4-dihydroisoquinolin-2(1H)-yl]ethyl}pyrrolidin-2-one] | 5.36
2 | CN1CCN(CC(=O)N2CCN(C(c3ccc(F)cc3)c3ccc(F)cc3)CC2)C(=O)C1c1ccccc1 (stereo not drawn) [Example 104, 1-(2-{4-[bis(4-fluorophenyl)methyl]piperazin-1-yl}-2-oxoethyl)-4-methyl-3-phenylpiperazin-2-one] | 5.33
3 | O=C(CN1CCC(c2ccccc2)(c2ccccc2)C1=O)N1CCC[C@H]2CN(C(c3ccccc3)c3ccccc3)C[C@H]21 [Example 50, 1-{2-[(4aS,7aS)-6-benzhydryloctahydro-1H-pyrrolo[3,4-b]pyridin-1-yl]-2-oxoethyl}-3,3-diphenylpyrrolidin-2-one] | 5.58
4 | O=C(CN1CCC(c2ccc(F)cc2)(c2ccc(F)cc2)C1=O)Nc1ccc(C(F)(F)F)cn1 [Example 217, 2-[3,3-bis(4-fluorophenyl)-2-oxopyrrolidin-1-yl]-N-[5-(trifluoromethyl)pyridin-2-yl]acetamide] | 5.58
5 | O=C(CN1CCC(c2ccc(C(F)(F)F)cc2)C1=O)N1Cc2ccc(F)cc2C1 (stereo not drawn) [Example 266, 1-[2-(5-fluoro-1,3-dihydro-2H-isoindol-2-yl)-2-oxoethyl]-3-[4-(trifluoromethyl)phenyl]pyrrolidin-2-one] | 4.99
6 | O=C(CN1CCCC(c2ccccc2)(c2ccccc2)C1=O)N1CCC(c2ccc(F)cc2)(c2ccc(F)cc2)C1 [Example 205, 1-{2-[3,3-bis(4-fluorophenyl)pyrrolidin-1-yl]-2-oxoethyl}-3,3-diphenylpiperidin-2-one] | 5.48
7 | O=C(CN1CCCC(c2ccccc2)(c2ccccc2)C1=O)N1CC(c2ccc(C(F)(F)F)cc2)C1 [Example 240, 1-(2-oxo-2-{3-[4-(trifluoromethyl)phenyl]azetidin-1-yl}ethyl)-3,3-diphenylpiperidin-2-one] | 5.51
8 | O=C1N(Cc2nc(COc3ccc(Cl)cc3)no2)CCCC1(c1ccccc1)c1ccccc1 [Example 263, 1-({3-[(4-chlorophenoxy)methyl]-1,2,4-oxadiazol-5-yl}methyl)-3,3-diphenylpiperidin-2-one] | 5.46
9 | O=C1N(CCN2CCN(c3cccc(C(F)(F)F)c3)CC2)CCCC1(c1ccc(F)cc1)c1ccc(F)cc1 [Example 139, 3,3-bis(4-fluorophenyl)-1-(2-{4-[3-(trifluoromethyl)phenyl]piperazin-1-yl}ethyl)piperidin-2-one] | 5.32
10 | O=C(CN1CCC(c2ccc(F)cc2)C1=O)N1Cc2ccc(C(F)(F)F)cc2C1 (single isomer, unassigned; (-)) [Example 265, (−)-3-(4-fluorophenyl)-1-{2-oxo-2-[5-(trifluoromethyl)-1,3-dihydro-2H-isoindol-2-yl]ethyl}pyrrolidin-2-one] | 4.96
11 | N#Cc1ccc(-c2noc(CN3CCC(c4ccc(F)cc4)(c4ccc(F)cc4)C3=O)n2)cc1 [Example 235, 4-(5-{[3,3-bis(4-fluorophenyl)-2-oxopyrrolidin-1-yl]methyl}-1,2,4-oxadiazol-3-yl)benzonitrile] | 5.50
12 | O=C1N(Cc2nc(-c3ccc(C(F)(F)F)cc3)no2)CCC1(c1ccc(F)cc1)c1ccc(F)cc1 [Example 190, 3,3-bis(4-fluorophenyl)-1-({3-[4-(trifluoromethyl)phenyl]-1,2,4-oxadiazol-5-yl}methyl)pyrrolidin-2-one] | 5.15
13 | O=C(CN1CCC(c2ccc(F)cc2)(c2ccc(F)cc2)C1=O)Nc1ccc(C(F)(F)F)cc1 [Example 218, 2-[3,3-bis(4-fluorophenyl)-2-oxopyrrolidin-1-yl]-N-[4-(trifluoromethyl)phenyl]acetamide] | 5.17
14 | O=C(CN1CCCC(c2ccc(F)cc2)(c2ccc(F)cc2)C1=O)N1CCN(C(c2ccccc2)c2ccccc2)CC1 [Example 90, 1-[2-(4-benzhydrylpiperazin-1-yl)-2-oxoethyl]-3,3-bis(4-fluorophenyl)piperidin-2-one] | 5.34
15 | O=C(CN1CCCC(c2ccccc2)(c2ccccc2)C1=O)N1CCC(c2cccc(C(F)(F)F)c2)CC1 [Example 243, 1-(2-oxo-2-{4-[3-(trifluoromethyl)phenyl]piperidin-1-yl}ethyl)-3,3-diphenylpiperidin-2-one] | 5.36
16 | O=C1N(S(=O)(=O)c2cccc(C(F)(F)F)c2)CCC1(c1ccc(F)cc1)c1ccc(F)cc1 [Example 145, 3,3-bis(4-fluorophenyl)-1-{[3-(trifluoromethyl)phenyl]sulfonyl}pyrrolidin-2-one] | 5.02

Stronger by pIC50, values ahead:

Row | pIC50 | Compound
17 | 5.61 | CC(C)N1CCN(CC(=O)N2CCN(C(c3ccc(F)cc3)c3ccc(F)cc3)CC2)C(=O)C1c1ccccc1 (stereo not drawn) [Example 273, 1-(2-(4-(bis(4-fluorophenyl)methyl)piperazin-1-yl)-2-oxoethyl)-4-isopropyl-3-phenylpiperazin-2-one]
18 | 5.61 | COc1ccc(CCN(C)CCN2CCCC(c3ccccc3)(c3ccccc3)C2=O)cc1OC [Example 118, 1-{2-[[2-(3,4-dimethoxyphenyl)ethyl](methyl)amino]ethyl}-3,3-diphenylpiperidin-2-one]
19 | 5.64 | COc1ccc(C2(c3ccc(OC)cc3)CCCN(CCCN3CCN(Cc4cc(OC)cc(OC)c4)CC3)C2=O)cc1 [Example 131, 1-{3-[4-(3,5-dimethoxybenzyl)piperazin-1-yl]propyl}-3,3-bis(4-methoxyphenyl)piperidin-2-one]
20 | 5.66 | O=C(CN1CCCC(c2ccccc2)C1=O)N1CCN(Cc2ccc(Cl)cc2Cl)CC1 (stereo not drawn) [Example 94, 1-{2-[4-(2,4-dichlorobenzyl)piperazin-1-yl]-2-oxoethyl}-3-phenylpiperidin-2-one]
21 | 5.67 | O=C(CN1CCC(c2ccccc2)(c2ccccc2)C1=O)N1CCC(c2ccc(F)cc2)(c2ccc(F)cc2)C1 [Example 203, 1-{2-[3,3-bis(4-fluorophenyl)pyrrolidin-1-yl]-2-oxoethyl}-3,3-diphenylpyrrolidin-2-one]
22 | 5.70 | O=C1N(Cc2nc(-c3cnccc3C(F)(F)F)no2)CCC1(c1ccccc1)c1ccccc1 [Example 220, 3,3-diphenyl-1-({3-[4-(trifluoromethyl)pyridin-3-yl]-1,2,4-oxadiazol-5-yl}methyl)pyrrolidin-2-one]
23 | 5.76 | O=C(CN1CCC(c2ccc(F)cc2)(c2ccc(F)cc2)C1=O)NC1CN(Cc2ccc(C(F)(F)F)c(F)c2)C1 [Example 239, 2-[3,3-bis(4-fluorophenyl)-2-oxopyrrolidin-1-yl]-N-{1-[3-fluoro-4-(trifluoromethyl)benzyl]azetidin-3-yl}acetamide]
24 | 5.79 | COc1cccc(CCN(C)CCCN2CCCC(c3ccc(F)cc3)(c3ccc(F)cc3)C2=O)c1 [Example 121, 3,3-bis(4-fluorophenyl)-1-{3-[[2-(3-methoxyphenyl)ethyl](methyl)amino]propyl}piperidin-2-one]
25 | 5.86 | O=C(CN1CCCC(c2ccccc2)(c2ccccc2)C1=O)N1CCN(Cc2ccc(C(F)(F)F)cc2)CC1 [Example 80, 1-(2-oxo-2-{4-[4-(trifluoromethyl)benzyl]piperazin-1-yl}ethyl)-3,3-diphenylpiperidin-2-one]
26 | 5.88 | O=C(CN1CCCC(c2ccccc2)(c2ccccc2)C1=O)N1CCN(Cc2cccc(Cl)c2)CC1 [Example 81, 1-{2-[4-(3-chlorobenzyl)piperazin-1-yl]-2-oxoethyl}-3,3-diphenylpiperidin-2-one]
27 | 5.90 | O=C(CN1CCCC(c2ccc(F)cc2)(c2ccc(F)cc2)C1=O)N1CCN(Cc2cccc(C(F)(F)F)c2)CC1 [Example 175, 3,3-bis(4-fluorophenyl)-1-(2-oxo-2-{4-[3-(trifluoromethyl)benzyl]piperazin-1-yl}ethyl)piperidin-2-one]
28 | 5.94 | O=C(CN1CCC(c2ccccc2)(c2ccccc2)C1=O)N1CCN(Cc2cccc(C(F)(F)F)c2)C(=O)C1 [Example 29, 4-[(2-oxo-3,3-diphenylpyrrolidin-1-yl)acetyl]-1-[3-(trifluoromethyl)benzyl]piperazin-2-one]
29 | 6.07 | O=C(CN1CCC(c2ccc(F)cc2)(c2ccc(F)cc2)C1=O)N1CC2(CCN(Cc3ccc(C(F)(F)F)cc3)CC2)C1 [Example 153, 3,3-bis(4-fluorophenyl)-1-(2-oxo-2-{7-[4-(trifluoromethyl)benzyl]-2,7-diazaspiro[3.5]non-2-yl}ethyl)pyrrolidin-2-one]
30 | 6.14 | COc1ccc(C2(c3ccc(OC)cc3)CCN(CCN(C)CC(O)COc3cccc4ncccc34)C2=O)cc1 (stereo not drawn) [Example 106, 1-{2-[[2-hydroxy-3-(quinolin-5-yloxy)propyl](methyl)amino]ethyl}-3,3-bis(4-methoxyphenyl)pyrrolidin-2-one]
31 | 6.15 | O=C(CN1CCC(c2ccccc2)(c2ccccc2)C1=O)N1CCC(C(O)(c2ccc(F)cc2)c2ccc(F)cc2)CC1 [Example 32, 1-(2-{4-[bis(4-fluorophenyl)(hydroxy)methyl]piperidin-1-yl}-2-oxoethyl)-3,3-diphenylpyrrolidin-2-one]
32 | 6.34 | O=C(CN1CCC(c2ccccc2)(c2ccccc2)C1=O)N1CCC(c2ccccc2)(c2ccccc2)CC1 [Example 25, 1-[2-(4,4-diphenylpiperidin-1-yl)-2-oxoethyl]-3,3-diphenylpyrrolidin-2-one]
33 | 6.35 | O=C(CN1CCC(c2ccccc2)(c2ccccc2)C1=O)N1CCN(C(c2ccccc2)c2ccc(F)cc2)CC1 (stereo not drawn) [Example 46, 1-(2-{4-[(4-fluorophenyl)(phenyl)methyl]piperazin-1-yl}-2-oxoethyl)-3,3-diphenylpyrrolidin-2-one]
